± gives the expanded uncertainty stated by the source.
Legend:
[1] = mn = molality of the nth substance listed, in mol/kg; conditions: 101.3 kPa, Liquid; for speed of sound: Pulse-echo method
[2] = 101.3 kPa, Liquid

[Cl][Co][Cl] [cobalt chloride] + CC#N
[1]
Conditions	mass density, 288.15 K [kg/m3]	mass density, 293.15 K [kg/m3]	mass density, 298.15 K [kg/m3]	mass density, 303.15 K [kg/m3]	mass density, 308.15 K [kg/m3]	mass density, 313.15 K [kg/m3]	mass density, 323.15 K [kg/m3]	speed of sound, 298.15 K [m/s]
m1 = 0.08764	795.418 ± 0.58	790.014 ± 0.58	784.59 ± 0.59	779.137 ± 0.6	773.654 ± 0.6	768.139 ± 0.61	756.997 ± 0.62	1279.8 ± 1.2
m1 = 0.1171	798.185 ± 0.57	792.779 ± 0.58	787.348 ± 0.59	781.889 ± 0.59	776.401 ± 0.6	770.881 ± 0.61	759.736 ± 0.62	1280.5 ± 1.2
m1 = 0.146	800.89 ± 0.57	795.475 ± 0.58	790.038 ± 0.58	784.571 ± 0.59	779.078 ± 0.6	773.545 ± 0.6	762.939 ± 0.62	1281.1 ± 1.2
m1 = 0.1743	803.599 ± 0.57	798.184 ± 0.57	792.742 ± 0.58	787.274 ± 0.59	781.773 ± 0.59	776.24 ± 0.6	765.073 ± 0.61	1281.8 ± 1.2
m1 = 0.2031	806.356 ± 0.56	800.934 ± 0.57	795.487 ± 0.58	790.011 ± 0.58	784.51 ± 0.59	778.973 ± 0.6	767.796 ± 0.61	1282.5 ± 1.2
m1 = 0.2318	809.121 ± 0.56	803.697 ± 0.57	798.244 ± 0.57	792.763 ± 0.58	787.256 ± 0.59	781.714 ± 0.59	770.528 ± 0.61	1283.2 ± 1.2
m1 = 0.26	811.836 ± 0.56	806.407 ± 0.56	800.953 ± 0.57	795.467 ± 0.58	789.954 ± 0.58	784.407 ± 0.59	773.206 ± 0.6	1284 ± 1.2
m1 = 0.2873	814.493 ± 0.55	809.058 ± 0.56	803.595 ± 0.57	798.109 ± 0.57	792.59 ± 0.58	787.039 ± 0.59	775.843 ± 0.6	1284.8 ± 1.2

CC#N [acetonitrile] + [Br-].[Br-].[Mn+2]
[1], m2 = 0
Conditions	mass density [kg/m3]
288.15 K	787.299 ± 0.6
293.15 K	781.923 ± 0.61
298.15 K	776.525 ± 0.61
303.15 K	771.097 ± 0.62
308.15 K	765.64 ± 0.62
313.15 K	760.148 ± 0.63
323.15 K	749.055 ± 0.65

CC#N [acetonitrile] + [Cl][Co][Cl]
[1], m2 = 0
Conditions	mass density [kg/m3]
288.15 K	787.297 ± 0.59
293.15 K	781.919 ± 0.59
298.15 K	776.518 ± 0.6
303.15 K	771.09 ± 0.61
308.15 K	765.631 ± 0.61
313.15 K	760.142 ± 0.62
323.15 K	749.056 ± 0.63

CC#N [acetonitrile]
[2]
Conditions	mass density
288.15 K	787.303 ± 0.59 kg/m3 [middle of 5 runs]
293.15 K	781.923 ± 0.61 kg/m3 [middle of 5 runs]
298.15 K	776.525 ± 0.61 kg/m3 [middle of 5 runs]
303.15 K	771.097 ± 0.62 kg/m3 [middle of 5 runs]
308.15 K	765.64 ± 0.62 kg/m3 [middle of 5 runs]
313.15 K	760.151 ± 0.62 kg/m3 [middle of 5 runs]
323.15 K	749.07 ± 0.65 kg/m3 [middle of 5 runs]

Conditions	speed of sound [m/s]
[2], 298.15 K, Pulse-echo method	1278.3 ± 1.2

CC#N [acetonitrile] + [Cl-].[Cl-].[Zn+2]
[1], m2 = 0
Conditions	mass density [kg/m3]
288.15 K	787.303 ± 0.59
293.15 K	781.922 ± 0.59
298.15 K	776.522 ± 0.6
303.15 K	771.095 ± 0.61
308.15 K	765.637 ± 0.61
313.15 K	760.151 ± 0.62
323.15 K	749.071 ± 0.63

[Cl-].[Cl-].[Zn+2] [zinc chloride] + CC#N
mass density [kg/m3], [1]
Conditions	m1 = 0.05257	m1 = 0.06571	m1 = 0.07576	m1 = 0.08438	m1 = 0.1077	m1 = 0.128	m1 = 0.1487	m1 = 0.1684	m1 = 0.1902	m1 = 0.2114
288.15 K	791.935 ± 0.58	793.095 ± 0.58	794 ± 0.58	794.764 ± 0.58	796.85 ± 0.57	798.676 ± 0.57	800.536 ± 0.57	802.335 ± 0.57	804.302 ± 0.56	806.244 ± 0.56
293.15 K	786.551 ± 0.59	787.712 ± 0.59	788.618 ± 0.58	789.38 ± 0.58	791.469 ± 0.58	793.289 ± 0.58	795.155 ± 0.58	796.955 ± 0.57	798.922 ± 0.57	800.862 ± 0.57
298.15 K	781.15 ± 0.59	782.313 ± 0.59	783.217 ± 0.59	783.985 ± 0.59	786.068 ± 0.59	787.887 ± 0.58	789.746 ± 0.58	791.541 ± 0.58	793.519 ± 0.58	795.456 ± 0.58
303.15 K	775.724 ± 0.6	776.886 ± 0.6	777.79 ± 0.6	778.553 ± 0.6	780.64 ± 0.59	782.455 ± 0.59	784.317 ± 0.59	786.115 ± 0.59	788.091 ± 0.58	790.032 ± 0.58
308.15 K	770.266 ± 0.61	771.431 ± 0.61	772.33 ± 0.6	773.096 ± 0.6	775.184 ± 0.6	777.003 ± 0.6	778.858 ± 0.6	780.661 ± 0.59	782.635 ± 0.59	784.575 ± 0.59
313.15 K	764.781 ± 0.61	765.94 ± 0.61	766.841 ± 0.61	767.607 ± 0.61	769.697 ± 0.61	771.516 ± 0.61	773.372 ± 0.6	775.165 ± 0.6	777.148 ± 0.6	779.089 ± 0.6
323.15 K	753.694 ± 0.63	754.859 ± 0.63	755.76 ± 0.62	756.526 ± 0.62	758.618 ± 0.62	760.435 ± 0.62	762.295 ± 0.62	764.103 ± 0.61	766.072 ± 0.61	768.014 ± 0.61

CC#N [acetonitrile] + [Br-].[Br-].[Zn+2]
[1], m2 = 0
Conditions	mass density [kg/m3]
288.15 K	787.313 ± 0.6
293.15 K	781.935 ± 0.6
298.15 K	776.535 ± 0.61
303.15 K	771.106 ± 0.62
308.15 K	765.65 ± 0.62
313.15 K	760.159 ± 0.63
323.15 K	749.07 ± 0.65

CC#N [acetonitrile] + [Br][Co][Br]
[1], m2 = 0
Conditions	mass density [kg/m3]	speed of sound [m/s]
288.15 K	787.315 ± 0.6	–
293.15 K	781.939 ± 0.61	–
298.15 K	776.538 ± 0.61	1278.3 ± 1.2
303.15 K	771.112 ± 0.62	–
308.15 K	765.653 ± 0.63	–
313.15 K	760.164 ± 0.63	–
323.15 K	749.073 ± 0.65	–

From the NIST ThermoML archive (doi:10.1021/je7001946)
